# Source: patent publication US9238039B2, “Pyrazolo[1,5-A]pyrimidines for antiviral treatment” (Gilead Sciences, Inc., priority 2010, dated 2016)
# Test system: RSV strain A2
# Assay: RSV antiviral cytoprotection assay in Hep2 cells (96-well and 384-well format, Cell TiterGlo read-out)
# Format: cell-based, Respiratory Syncytial Virus (RSV)
# Conditions: human respiratory syncytial virus, HEp-2, 0.5 uM; RSV-induced cytopathic effect in Hep2 cells; calculated from fitted dose response curve, normalized to 0% and 100%
row,SMILES,inhibition at 0.5 µM
1,Cc1cc(C2CC2)nc2cc([C@@H]3CCCCN3C(=O)C(NC(=O)OC(C)(C)C)c3cccc(Cl)c3)nn12 (some centres unmarked) [Compound 238],100%
2,Cc1cc(C2CC2)nc2cc([C@@H]3CCCCN3C(=O)C(c3ccccc3)N(C)C)nn12 (some centres unmarked) [Compound 239],36%
3,Cc1cc(C2CC2)nc2cc([C@@H]3CCCCN3C(=O)[C@](C)(NS(C)(=O)=O)c3ccccc3)nn12 [Compound 240],71%
4,Cc1cc(C2CC2)nc2cc([C@@H]3CCCCN3C(=O)C(NS(C)(=O)=O)c3ccccc3)nn12 (some centres unmarked) [Compound 241],99%
5,Cc1cc(C2CC2)nc2cc([C@@H]3CCCCN3C(=O)C(NC(=O)OC(C)(C)C)c3ccccc3)nn12 (some centres unmarked) [Compound 242],72%
6,Cc1cn2nc([C@@H]3CCCCN3C(=O)c3cc(Cl)ccc3NS(C)(=O)=O)cc2nc1N1CC(OP(=O)(O)O)C1 [Compound 244],88%
7,CC(=O)Nc1c(Cl)ccc(Cl)c1C(=O)N1CCCC[C@H]1c1cc2[nH]c(C)c(C)c(=O)n2n1 [Compound 245],92%
8,CC(=O)Nc1c(Cl)cc(C)cc1C(=O)N1CCCC[C@H]1c1cc2nc(C)c(C)c(N(C)C)n2n1 [Compound 246],98%
9,CS(=O)(=O)Nc1ccc(Cl)cc1C(=O)N1CCCC[C@H]1c1cc2nc(NCCO)cc(N3CCOCC3)n2n1 [Compound 247],94%
10,CC(=O)Nc1ccc(Cl)cc1C(=O)N1CCCC[C@H]1c1cc2nc(N3CC(N)C3)c(C)cn2n1 [Compound 248],100%
11,Cc1cn2nc([C@@H]3CCCCN3C(=O)c3cc(Cl)ccc3NC(=O)OC(C)C)cc2nc1N1CC[C@H](N)C1 [Compound 249],86%
12,Cc1cn2nc([C@@H]3CCCCN3C(=O)c3cc(Cl)ccc3NS(C)(=O)=O)cc2nc1N1CC(N)C(F)C1 (some centres unmarked) [Compound 250],90%
13,Cc1ccc(NS(C)(=O)=O)c(C(=O)N2CCC(C(F)(F)F)CC2c2cc3[nH]c(C)c(C)c(=O)n3n2)c1 (centres unmarked) [Compound 251],73%
14,CS(=O)(=O)Nc1ccc(Cl)cc1C(=O)N1CCCC[C@H]1c1cc2nc(N3CCC3)cc(N3CCCCN3)n2n1 [Compound 252],92%
15,CS(=O)(=O)Nc1ccc(Cl)cc1C(=O)N1CCCC[C@H]1c1cc2nc(N3CCC3)cc(N3CCN[C@@H](C(F)F)C3)n2n1 [Compound 253],88%
16,CS(=O)(=O)Nc1ccc(Cl)cc1C(=O)N1CCCC[C@H]1c1cc2nc(N3CCC3)cc(CO)n2n1 [Compound 254],90%
17,CS(=O)(=O)Nc1ccc(Cl)cc1C(=O)N1CCCC[C@H]1c1cc2nc(N3CCC3)cc(CN3CCOCC3)n2n1 [Compound 256],87%
18,Cc1cn2nc([C@@H]3CCCCN3C(=O)c3ccco3)cc2nc1N1CC[C@H](N)C1 [Compound 258],100%
19,Cc1cn2nc([C@@H]3CCCCN3C(=O)c3cnco3)cc2nc1N1CC[C@H](N)C1 [Compound 259],28%
20,Cc1cn2nc([C@@H]3CCCCN3C(=O)c3cnccn3)cc2nc1N1CC[C@H](N)C1 [Compound 260],99%
21,Cc1cn2nc([C@@H]3CCCCN3C(=O)c3cccn3C)cc2nc1N1CC[C@H](N)C1 [Compound 261],81%
22,Cc1cc(C(=O)N2CCCC[C@H]2c2cc3nc(N4CC[C@H](N)C4)c(C)cn3n2)[nH]n1 [Compound 262],100%

row,SMILES,inhibition at 0.5 µM
1,Cc1cn2nc([C@@H]3CCCCN3C(=O)c3ccnn3C)cc2nc1N1CC[C@H](N)C1 [Compound 263],99%
2,Cc1cc(C(=O)N2CCCC[C@H]2c2cc3nc(N4CC[C@H](N)C4)c(C)cn3n2)no1 [Compound 264],53%
3,Cc1cn2nc([C@@H]3CCCCN3C(=O)c3ocnc3C)cc2nc1N1CC[C@H](N)C1 [Compound 265],100%
4,Cc1cc(C(=O)N2CCCC[C@H]2c2cc3nc(N4CC[C@H](N)C4)c(C)cn3n2)on1 [Compound 266],100%
5,Cc1cn2nc([C@@H]3CCCCN3C(=O)c3ccsc3)cc2nc1N1CC[C@H](N)C1 [Compound 267],99%
6,Cc1cn2nc([C@@H]3CCCCN3C(=O)c3nccs3)cc2nc1N1CC[C@H](N)C1 [Compound 268],76%
7,Cc1cn2nc([C@@H]3CCCCN3C(=O)c3cncs3)cc2nc1N1CC[C@H](N)C1 [Compound 269],90%
8,Cc1cn2nc([C@@H]3CCCCN3C(=O)c3cscn3)cc2nc1N1CC[C@H](N)C1 [Compound 270],82%
9,Cc1cn2nc([C@@H]3CCCCN3C(=O)c3csnn3)cc2nc1N1CC[C@H](N)C1 [Compound 271],97%
10,Cc1ccnc(C(=O)N2CCCC[C@H]2c2cc3nc(N4CC[C@H](N)C4)c(C)cn3n2)c1 [Compound 272],100%
11,Cc1cccc(C(=O)N2CCCC[C@H]2c2cc3nc(N4CC[C@H](N)C4)c(C)cn3n2)n1 [Compound 273],100%
12,Cc1cn2nc([C@@H]3CCCCN3C(=O)c3ccccc3O)cc2nc1N1CC[C@H](N)C1 [Compound 274],100%
13,Cc1cn2nc([C@@H]3CCCCN3C(=O)c3cccnc3N)cc2nc1N1CC[C@H](N)C1 [Compound 275],100%
14,Cc1cn2nc([C@@H]3CCCCN3C(=O)c3cncnc3N)cc2nc1N1CC[C@H](N)C1 [Compound 276],90%
15,Cc1cn2nc([C@@H]3CCCCN3C(=O)c3ccccc3F)cc2nc1N1CC[C@H](N)C1 [Compound 277],98%
16,CCn1nccc1C(=O)N1CCCC[C@H]1c1cc2nc(N3CC[C@H](N)C3)c(C)cn2n1 [Compound 278],99%
17,Cc1cn2nc([C@@H]3CCCCN3C(=O)c3cnn(C)c3C)cc2nc1N1CC[C@H](N)C1 [Compound 279],63%
18,Cc1cn2nc([C@@H]3CCCCN3C(=O)c3cc(C)n(C)n3)cc2nc1N1CC[C@H](N)C1 [Compound 280],60%
19,CCn1cc(C(=O)N2CCCC[C@H]2c2cc3nc(N4CC[C@H](N)C4)c(C)cn3n2)cn1 [Compound 281],37%
20,Cc1cn2nc([C@@H]3CCCCN3C(=O)c3cccnc3F)cc2nc1N1CC[C@H](N)C1 [Compound 282],100%
21,Cc1cn2nc([C@@H]3CCCCN3C(=O)c3onc(C)c3C)cc2nc1N1CC[C@H](N)C1 [Compound 283],99.8%

# Same assay, conditions: human respiratory syncytial virus, HEp-2, RSV-induced cytopathic effects, Hep2 cells; class symbols
row,SMILES,EC50
1,Cc1cc(C2CC2)nc2cc([C@@H]3CCCCN3C(=O)C(NC(=O)OC(C)(C)C)c3cccc(Cl)c3)nn12 (some centres unmarked) [Compound 238],101 to 1000 nM
2,Cc1cc(C2CC2)nc2cc([C@@H]3CCCCN3C(=O)C(c3ccccc3)N(C)C)nn12 (some centres unmarked) [Compound 239],101 to 1000 nM
3,Cc1cc(C2CC2)nc2cc([C@@H]3CCCCN3C(=O)[C@](C)(NS(C)(=O)=O)c3ccccc3)nn12 [Compound 240],101 to 1000 nM
4,Cc1cc(C2CC2)nc2cc([C@@H]3CCCCN3C(=O)C(NS(C)(=O)=O)c3ccccc3)nn12 (some centres unmarked) [Compound 241],0.1 to 100 nM
5,Cc1cc(C2CC2)nc2cc([C@@H]3CCCCN3C(=O)C(NC(=O)OC(C)(C)C)c3ccccc3)nn12 (some centres unmarked) [Compound 242],101 to 1000 nM
6,Cc1cn2nc([C@@H]3CCCCN3C(=O)c3cc(Cl)ccc3NS(C)(=O)=O)cc2nc1N1CC(OP(=O)(O)O)C1 [Compound 244],0.1 to 100 nM
7,CC(=O)Nc1c(Cl)ccc(Cl)c1C(=O)N1CCCC[C@H]1c1cc2[nH]c(C)c(C)c(=O)n2n1 [Compound 245],0.1 to 100 nM
8,CC(=O)Nc1c(Cl)cc(C)cc1C(=O)N1CCCC[C@H]1c1cc2nc(C)c(C)c(N(C)C)n2n1 [Compound 246],0.1 to 100 nM
9,CS(=O)(=O)Nc1ccc(Cl)cc1C(=O)N1CCCC[C@H]1c1cc2nc(NCCO)cc(N3CCOCC3)n2n1 [Compound 247],0.1 to 100 nM
10,CC(=O)Nc1ccc(Cl)cc1C(=O)N1CCCC[C@H]1c1cc2nc(N3CC(N)C3)c(C)cn2n1 [Compound 248],0.1 to 100 nM
11,Cc1cn2nc([C@@H]3CCCCN3C(=O)c3cc(Cl)ccc3NC(=O)OC(C)C)cc2nc1N1CC[C@H](N)C1 [Compound 249],0.1 to 100 nM
12,Cc1cn2nc([C@@H]3CCCCN3C(=O)c3cc(Cl)ccc3NS(C)(=O)=O)cc2nc1N1CC(N)C(F)C1 (some centres unmarked) [Compound 250],0.1 to 100 nM
13,Cc1ccc(NS(C)(=O)=O)c(C(=O)N2CCC(C(F)(F)F)CC2c2cc3[nH]c(C)c(C)c(=O)n3n2)c1 (centres unmarked) [Compound 251],101 to 1000 nM
14,CS(=O)(=O)Nc1ccc(Cl)cc1C(=O)N1CCCC[C@H]1c1cc2nc(N3CCC3)cc(N3CCCCN3)n2n1 [Compound 252],0.1 to 100 nM
15,CS(=O)(=O)Nc1ccc(Cl)cc1C(=O)N1CCCC[C@H]1c1cc2nc(N3CCC3)cc(N3CCN[C@@H](C(F)F)C3)n2n1 [Compound 253],0.1 to 100 nM
16,CS(=O)(=O)Nc1ccc(Cl)cc1C(=O)N1CCCC[C@H]1c1cc2nc(N3CCC3)cc(CO)n2n1 [Compound 254],0.1 to 100 nM
17,CS(=O)(=O)Nc1ccc(Cl)cc1C(=O)N1CCCC[C@H]1c1cc2nc(N3CCC3)cc(CN3CCOCC3)n2n1 [Compound 256],0.1 to 100 nM
18,Cc1cn2nc([C@@H]3CCCCN3C(=O)c3ccco3)cc2nc1N1CC[C@H](N)C1 [Compound 258],0.1 to 100 nM
19,Cc1cn2nc([C@@H]3CCCCN3C(=O)c3cnco3)cc2nc1N1CC[C@H](N)C1 [Compound 259],1000 to 10000 nM
20,Cc1cn2nc([C@@H]3CCCCN3C(=O)c3cnccn3)cc2nc1N1CC[C@H](N)C1 [Compound 260],0.1 to 100 nM
21,Cc1cn2nc([C@@H]3CCCCN3C(=O)c3cccn3C)cc2nc1N1CC[C@H](N)C1 [Compound 261],101 to 1000 nM
22,Cc1cc(C(=O)N2CCCC[C@H]2c2cc3nc(N4CC[C@H](N)C4)c(C)cn3n2)[nH]n1 [Compound 262],0.1 to 100 nM

row,SMILES,EC50
1,Cc1cn2nc([C@@H]3CCCCN3C(=O)c3ccnn3C)cc2nc1N1CC[C@H](N)C1 [Compound 263],0.1 to 100 nM
2,Cc1cc(C(=O)N2CCCC[C@H]2c2cc3nc(N4CC[C@H](N)C4)c(C)cn3n2)no1 [Compound 264],101 to 1000 nM
3,Cc1cn2nc([C@@H]3CCCCN3C(=O)c3ocnc3C)cc2nc1N1CC[C@H](N)C1 [Compound 265],0.1 to 100 nM
4,Cc1cc(C(=O)N2CCCC[C@H]2c2cc3nc(N4CC[C@H](N)C4)c(C)cn3n2)on1 [Compound 266],0.1 to 100 nM
5,Cc1cn2nc([C@@H]3CCCCN3C(=O)c3ccsc3)cc2nc1N1CC[C@H](N)C1 [Compound 267],0.1 to 100 nM
6,Cc1cn2nc([C@@H]3CCCCN3C(=O)c3nccs3)cc2nc1N1CC[C@H](N)C1 [Compound 268],101 to 1000 nM
7,Cc1cn2nc([C@@H]3CCCCN3C(=O)c3cncs3)cc2nc1N1CC[C@H](N)C1 [Compound 269],0.1 to 100 nM
8,Cc1cn2nc([C@@H]3CCCCN3C(=O)c3cscn3)cc2nc1N1CC[C@H](N)C1 [Compound 270],101 to 1000 nM
9,Cc1cn2nc([C@@H]3CCCCN3C(=O)c3csnn3)cc2nc1N1CC[C@H](N)C1 [Compound 271],0.1 to 100 nM
10,Cc1ccnc(C(=O)N2CCCC[C@H]2c2cc3nc(N4CC[C@H](N)C4)c(C)cn3n2)c1 [Compound 272],0.1 to 100 nM
11,Cc1cccc(C(=O)N2CCCC[C@H]2c2cc3nc(N4CC[C@H](N)C4)c(C)cn3n2)n1 [Compound 273],0.1 to 100 nM
12,Cc1cn2nc([C@@H]3CCCCN3C(=O)c3ccccc3O)cc2nc1N1CC[C@H](N)C1 [Compound 274],0.1 to 100 nM
13,Cc1cn2nc([C@@H]3CCCCN3C(=O)c3cccnc3N)cc2nc1N1CC[C@H](N)C1 [Compound 275],0.1 to 100 nM
14,Cc1cn2nc([C@@H]3CCCCN3C(=O)c3cncnc3N)cc2nc1N1CC[C@H](N)C1 [Compound 276],101 to 1000 nM
15,Cc1cn2nc([C@@H]3CCCCN3C(=O)c3ccccc3F)cc2nc1N1CC[C@H](N)C1 [Compound 277],0.1 to 100 nM
16,CCn1nccc1C(=O)N1CCCC[C@H]1c1cc2nc(N3CC[C@H](N)C3)c(C)cn2n1 [Compound 278],0.1 to 100 nM
17,Cc1cn2nc([C@@H]3CCCCN3C(=O)c3cnn(C)c3C)cc2nc1N1CC[C@H](N)C1 [Compound 279],101 to 1000 nM
18,Cc1cn2nc([C@@H]3CCCCN3C(=O)c3cc(C)n(C)n3)cc2nc1N1CC[C@H](N)C1 [Compound 280],101 to 1000 nM
19,CCn1cc(C(=O)N2CCCC[C@H]2c2cc3nc(N4CC[C@H](N)C4)c(C)cn3n2)cn1 [Compound 281],101 to 1000 nM
20,Cc1cn2nc([C@@H]3CCCCN3C(=O)c3cccnc3F)cc2nc1N1CC[C@H](N)C1 [Compound 282],0.1 to 100 nM
21,Cc1cn2nc([C@@H]3CCCCN3C(=O)c3onc(C)c3C)cc2nc1N1CC[C@H](N)C1 [Compound 283],0.1 to 100 nM
